From patent US8685977B2, “Chemical compounds” (Pfizer Limited, priority 2010, dated 2014) come the findings set out here.

A value given as a limit tells only on which side of the number the result lay.

T1 sequence (Q15858 whole entry): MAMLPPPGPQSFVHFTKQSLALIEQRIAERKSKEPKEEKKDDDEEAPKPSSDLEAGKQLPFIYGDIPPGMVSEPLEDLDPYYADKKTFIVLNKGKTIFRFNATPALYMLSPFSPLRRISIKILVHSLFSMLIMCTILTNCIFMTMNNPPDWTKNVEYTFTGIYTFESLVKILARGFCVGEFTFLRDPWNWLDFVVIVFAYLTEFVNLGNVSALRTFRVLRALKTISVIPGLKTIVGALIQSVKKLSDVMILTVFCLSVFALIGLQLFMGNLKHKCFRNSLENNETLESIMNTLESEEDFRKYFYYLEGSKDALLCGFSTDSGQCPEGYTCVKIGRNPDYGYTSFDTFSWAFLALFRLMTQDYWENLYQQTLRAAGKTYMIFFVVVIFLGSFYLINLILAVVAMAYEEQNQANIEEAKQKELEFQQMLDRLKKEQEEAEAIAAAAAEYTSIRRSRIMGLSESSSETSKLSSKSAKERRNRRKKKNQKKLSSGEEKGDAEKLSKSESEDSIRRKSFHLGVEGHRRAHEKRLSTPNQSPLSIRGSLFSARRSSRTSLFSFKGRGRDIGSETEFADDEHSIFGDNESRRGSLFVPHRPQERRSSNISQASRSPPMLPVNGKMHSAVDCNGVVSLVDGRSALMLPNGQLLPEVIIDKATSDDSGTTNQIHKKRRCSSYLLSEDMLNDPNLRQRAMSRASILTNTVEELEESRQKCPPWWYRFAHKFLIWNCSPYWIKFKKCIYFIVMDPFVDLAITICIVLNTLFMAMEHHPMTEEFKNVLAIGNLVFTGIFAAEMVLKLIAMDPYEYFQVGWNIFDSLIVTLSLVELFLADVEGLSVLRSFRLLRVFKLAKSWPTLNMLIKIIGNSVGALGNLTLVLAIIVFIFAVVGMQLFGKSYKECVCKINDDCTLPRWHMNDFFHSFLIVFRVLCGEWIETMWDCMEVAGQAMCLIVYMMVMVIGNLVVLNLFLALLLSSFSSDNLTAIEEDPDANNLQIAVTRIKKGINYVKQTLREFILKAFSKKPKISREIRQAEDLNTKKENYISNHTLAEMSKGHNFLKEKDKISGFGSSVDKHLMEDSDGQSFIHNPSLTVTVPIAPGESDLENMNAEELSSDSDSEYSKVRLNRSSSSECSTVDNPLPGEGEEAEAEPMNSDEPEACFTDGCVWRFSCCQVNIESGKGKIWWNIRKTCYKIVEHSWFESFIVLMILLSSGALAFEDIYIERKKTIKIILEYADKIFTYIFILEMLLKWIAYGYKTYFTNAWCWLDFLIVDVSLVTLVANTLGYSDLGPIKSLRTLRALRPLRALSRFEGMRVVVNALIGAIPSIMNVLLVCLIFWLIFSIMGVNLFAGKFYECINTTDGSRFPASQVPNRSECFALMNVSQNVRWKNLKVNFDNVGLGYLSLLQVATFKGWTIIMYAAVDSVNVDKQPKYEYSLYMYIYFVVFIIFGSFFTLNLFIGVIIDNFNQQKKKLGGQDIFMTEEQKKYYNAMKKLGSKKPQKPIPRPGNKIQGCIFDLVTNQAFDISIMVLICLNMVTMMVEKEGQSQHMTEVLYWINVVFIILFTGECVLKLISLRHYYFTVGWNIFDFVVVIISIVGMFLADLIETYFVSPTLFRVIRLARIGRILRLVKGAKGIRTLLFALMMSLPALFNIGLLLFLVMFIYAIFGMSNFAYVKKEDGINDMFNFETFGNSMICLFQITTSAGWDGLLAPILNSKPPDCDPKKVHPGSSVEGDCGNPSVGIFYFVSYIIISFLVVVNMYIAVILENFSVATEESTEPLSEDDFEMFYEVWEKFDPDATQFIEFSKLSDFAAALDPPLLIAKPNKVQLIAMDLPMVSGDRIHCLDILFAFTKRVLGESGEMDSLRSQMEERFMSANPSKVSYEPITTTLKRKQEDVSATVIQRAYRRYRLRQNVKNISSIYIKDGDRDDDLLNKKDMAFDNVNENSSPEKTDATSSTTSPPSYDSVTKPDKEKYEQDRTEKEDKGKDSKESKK

The test concerns the target T1, Nav1.7 (or SCN9A) channel (Homo sapiens, UniProt Q15858).
T1 construct: expressed in transfected cells
The test is described as follows: Nav1.7 PatchXpress 7000 automated electrophysiology assay (HEK cells stably expressing hSCN9A). The following applies: voltage-clamped at V1/2 of inactivation, read-out: Nav1.7 EIC50. Type of test: cell-based. The procedure, abridged: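 Automated whole-cell clamp (PatchXpress) of HEK cells stably expressing hSCN9A, at 22-24 °C, in extracellular buffer at pH 7.4. Cells were held at the measured V1/2 of inactivation, then stepped to 0 mV for 20 ms. Single-concentration % inhibition gave EIC50 = concentration × (100 − %inhibition)/%inhibition, excluding <20% or >80%.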
With `COc1cc(Cl)ccc1Oc1ccc(C(=O)NS(C)(=O)=O)c(F)c1` [Example 64, 4-(4-chloro-2-methoxyphenoxy)-2-fluoro-N-(methylsulfonyl)benzamide], the IC50 was over 3 µM. Take `COc1cc(Cl)ccc1Oc1ccc(C(=O)NS(C)(=O)=O)cc1` [Example 175, 4-(4-chloro-2-methoxyphenoxy)-N-(methylsulfonyl)benzamide]: the IC50 was over 10 µM. `CS(=O)(=O)NC(=O)c1ccc(Oc2cccc(C(F)(F)F)c2)cc1` [Example 163, N-(methylsulfonyl)-4-[3-(trifluoromethyl)phenoxy]benzamide]: the IC50 came to 12 µM. As for `CS(=O)(=O)NC(=O)c1ccc(Oc2ccccc2F)cc1` [Example 171, 4-(2-fluorophenoxy)-N-(methylsulfonyl)benzamide], the IC50 was over 10 µM.

As to `Cc1ccc(Oc2cc(F)c(C(=O)NS(C)(=O)=O)cc2Cl)cc1` [Example 291, 5-chloro-2-fluoro-4-(4-methylphenoxy)-N-(methylsulfonyl)benzamide], the IC50 came to 0.42 µM. In the case of `Cc1ccccc1Oc1ccc(C(=O)NS(C)(=O)=O)cc1Cl` [Example 256, 3-chloro-4-(2-methylphenoxy)-N-(methylsulfonyl)benzamide] it was 2.8 µM; in that of `CS(=O)(=O)NC(=O)c1cc(Cl)c(Oc2ccc(Cl)cc2OC(F)(F)F)cc1F` [Example 53, 5-chloro-4-[4-chloro-2-(trifluoromethoxy)phenoxy]-2-fluoro-N-(methylsulfonyl)benzamide], 0.063 µM. The value for `CS(=O)(=O)NC(=O)c1ccc(Oc2ccccc2)c(Cl)c1` [Example 252, 3-chloro-N-(methylsulfonyl)-4-phenoxybenzamide] was 1.2 µM. Consider `CC(C)S(=O)(=O)NC(=O)c1ccc(Oc2ccc(Cl)c(C(F)(F)F)c2)cc1` [Example 76, 4-(4-chloro-3-(trifluoromethyl)phenoxy)-N-(isopropylsulfonyl)benzamide], for which the IC50 was 0.85 µM.

Regarding `CS(=O)(=O)NC(=O)c1cc(F)c(Oc2ccc(Cl)cc2OC(F)(F)F)cc1F` [Example 73, 4-[4-chloro-2-(trifluoromethoxy)phenoxy]-2,5-difluoro-N-(methylsulfonyl)benzamide], the IC50 stood at 0.71 µM. The value for `COc1c(C(=O)NS(C)(=O)=O)ccc(Oc2ccc(Cl)c(Cl)c2)c1F` [Example 234, 4-(3,4-dichlorophenoxy)-3-fluoro-2-methoxy-N-(methylsulfonyl)benzamide] was 0.85 µM; that for `CS(=O)(=O)NC(=O)c1ccc(Oc2ccc(Cl)cc2)cc1` [Example 24, 4-(4-chlorophenoxy)-N-(methylsulfonyl)benzamide] was 5.7 µM; that for `CS(=O)(=O)NC(=O)c1ccc(Oc2cccc(C#N)c2)c(Cl)c1` [Example 264, 3-chloro-4-(3-cyanophenoxy)-N-(methylsulfonyl)benzamide] was 7 µM.

Take `Cc1cc(C(=O)NS(C)(=O)=O)ccc1Oc1cccc(Cl)c1` [Example 238, 4-(3-chlorophenoxy)-3-methyl-N-(methylsulfonyl)benzamide]: the IC50 is 0.96 µM. In the case of `CS(=O)(=O)NC(=O)c1ccc(Oc2ccc(OC(F)(F)F)cc2)cc1` [Example 168, N-(methylsulfonyl)-4-[4-(trifluoromethoxy)phenoxy]benzamide] it was 1.6 µM; in that of `CS(=O)(=O)NC(=O)c1cc(Cl)c(Oc2ccc(OC(F)F)c(Cl)c2)cc1F` [Example 51, 5-chloro-4-[3-chloro-4-(difluoromethoxy)phenoxy]-2-fluoro-N-(methylsulfonyl)benzamide], 0.26 µM; in that of `CCc1cc(C(=O)NS(C)(=O)=O)ccc1Oc1ccc(Cl)c(Cl)c1` [Example 4, 4-(3,4-Dichlorophenoxy)-3-ethyl-N-(methylsulfonyl)benzamide], 0.25 µM. Regarding `CS(=O)(=O)NC(=O)c1ccc(Oc2ccc(Cl)c(C(F)(F)F)c2)cc1` [Example 15, 4-[4-chloro-3-(trifluoromethyl)phenoxy]-N-(methylsulfonyl)benzamide], the IC50 worked out at 0.93 µM.
